Measurements: patent publication US5364631A, “Tocopherol-based pharmaceutical systems” (The Liposome Company, Inc., priority 1993, dated 1994)

Experiments:
[1] = cited from earlier work
[2] = stabilization of THS into the bilayer phase at acidic pH (detergent/surfactant screening)
Description: Stabilizers are defined as compounds which allow the formation and/or maintenance of the bilayer state of d-alpha-tocopherol acid succinate based liposomes in an acidic pH environment.

[3] = cited from earlier work; remark: listed apart in the source
[4] = freeze fracture electron microscopy / appearance of THS bilayers, effect of pH; assay type: physicochemical
Description: Characterizing the pH-dependent polymorphic nature of the THS is of importance in designing drug delivery systems comprising THS.
An aliquot (0.1-0.3 ul) of the 10% THS vesicle specimen was sandwiched between a pair of Balzers (Nashua, NH) copper support plates and rapidly plunged from 23° C. into liquid propane. Samples were fractured and replicated on a double replicating device in a Balzers freeze-fracture unit at a vacuum of 2×10^-6 mbar or better and at -115° C. Replicas were floated off in 3N HNO3, followed by washing in a graded series of Chlorox solutions. These were finally cleaned in distilled water and picked up on 300 Hex mesh copper grids (Polysciences, PA). Replicas were viewed on a Philips 300 electron microscope at a magnification of 22,000 times.

For `Cc1c(C)c2c(c(C)c1OC(=O)CCC(=O)O)CCC(C)(CCCC(C)CCCC(C)CCCC(C)C)O2` (centres unmarked) [t-THS, tris(hydroxymethyl)aminomethane)-tocopherol hemisuccinate], the “trapping efficiency of closed multilamellar vesicles” value ([1]; physiological pH) is given as “high trapping efficiencies”.
For sorbitan monolaurate, the “stabilization of THS into the bilayer phase” value (“stabilization” for short) [2] was “do not stabilize the preparations”.
In the case of `CC[C@@H]1C(=O)OC[C@@H]1Cc1cncn1C` [pilocarpine], the “chemical stability at high pH” value ([3]; high pH, base-catalyzed hydrolysis) is given as “unstable at high pH”, the “chemical stability at lower pH” value ([3]; lower pH (protonated)) is given as “more stable” and the “chemical stability in pilocarpine and THS mixtures” value ([3]; pH values around 7.0) is given as “chemically unstable”.
For sorbitan monopalmitate, the “stabilization” value [2] was “do not stabilize the preparations”.
For `Cc1c(C)c2c(c(C)c1OC(=O)CCC(=O)O)CC[C@@](C)(CCC[C@H](C)CCC[C@H](C)CCCC(C)C)O2` [THS, d-alpha-tocopherol acid succinate], the “precipitation upon lowering the pH” value ([4]; lowered pH, no stabilizer) is listed as “precipitates resembling hexII phase lipid are formed”, the “vesicle morphology by freeze fracture electron microscopy” value ([4]; pH 7.0) is listed as “heterogenous population of multilamellar and unilamellar vesicles” and the “pH range in which aqueous suspensions are in the bilayer phase” value ([1]; aqueous suspension) is listed as 6.0-9.0 pH. The “phase formed on lowering the pH below about 6.0 or introducing divalent cations” value ([1]; pH below about 6.0 or Mg++ or Ca++) was “produces vesicle aggregation and fusion, and induces hexagonal phase (hexII) formation”.
In the case of `CCCCCCCCCCCCCCCCCC(=O)OCC(O)CO` (centres unmarked) [glycerol monostearate], the “stabilization” value [2] is reported as “do not stabilize the preparations”.
